Laboratory results published in patent US20110082204A1, “N-alkylcarbonyl-amino acid ester and N-alkylcarbonyl-amino lactone compounds and their use” (priority 2006, published 2011).

Columns and labels:
eyelids/ocular surface = test: Cooling after wiping closed eyelids with a towelette; type: in vivo, human; conditions: eye wipes, 1 mg/ml in 5%-95% v/v ethanol-distilled water
Method: A second method of testing was to take a towelette saturated with a test solution of the cooling agent and to wipe the towelette over the dosed eyelids. The presence or absence of cooling (or irritanty, if applicable) sensations was then recorded at 10 minute intervals until the cessation of coolness in two successive intervals.
For testing of cooling compounds delivered to the eyelids with a towelette, the following procedures were used in the experiments of Table 3 and in Study 5 and 6. Three ml of liquid suspension or solution in distilled water was added to a 0.4 g cotton rectangle (50 mm×60 mm) (CS-being, Daisan Cotton, Japan) and individually sealed with a vaccuum apparatus (Foodsaver®, Jarden Corp.). Samples were stored in the freezer or refrigerator and thawed to room temperature before use. Wiping with the cotton pad delivers 40 to 45 μl of liquid composition to the eyelids ([…] to 22 μl per eye). So, if the concentration of the test substance was 1 mg/ml, the dose delivered to both eyes is a total of ˜40 to […], or ˜20 μg per eye. This method allows a reliable delivery of test substances because the dissolved or suspended particles in solution are evenly dispersed on the cotton pad in an excess volume of liquid. The presence or absence of cooling sensations was noted as being present or absent at 5 to 10 min intervals until no coolness was noticeable in two successive test intervals. Only the duration of cooling on the ocular surface was recorded, without an attempt to quantify the intensity of the sensation.

[1] = Log P of tested compounds; type: physicochemical
philtrum skin = test: Cooling sensation after ointment applied to philtrum skin; type: in vivo, human; conditions: for Duration of cooling, Philtrum Skin: 5 mg/ml in Aquaphor ointment on philtrum skin; for duration of action / onset on philtrum skin: Study 1
Description: A reliable place for topical application is the skin above the upper lip (above the vermilion border of the lips), on the philtrum, lateral to the philtrum until the nasolabial folds, and on the lower nostrils (subnasale). This part of the face is known to be densely innervated with cold receptors, second only to the surfaces of the eyeball and anogenitalia.
The intensity of the subjective skin sensation is rated as 0, 1, 2 or 3 with: 0 as no change; 1 as slight coolness, cold, or tingling; 2 as clear-cut signal of coolness, cold, or tingling; and 3 as robust cooling or cold. The intervals for recording sensations are 5 to 10 minutes, until two successive zeroes are obtained. The results (shown in FIG. 1) are averaged values of 4 to 6 separate trials in the same individual. The data are plotted using SigmaPlot® (Systat Software, Point Richmond Calif.) and a smoothing function with a negative exponential was used for analysis and statistical fit of the results. Confirmatory trials of cooling action of the long-acting NACE compounds were obtained in 2 to 4 individuals but not quantified for some because of the large number of chemicals that were evaluated
(§1) The onset of drug action is taken as the time to reach 2 units of coolness intensity, and offset of drug action is the time when coolness intensity drops below 2, after previously surpassing 2 units. The duration of cooling action is defined as the offset time minus the onset time. […] The quality of the sensation is noted, for example, as pure refreshing coolness, or if the sensation is accompanied by irritation (stinging or burning). The quality of the sensation is not rated for intensity.
For bioassay on the skin, approximately 30 mg was stirred and dissolved in 3 g of warm liquid Aquaphor® ointment to a yield 5 to 10 mg/ml (0.5% to 1.0 wt/vol) ointment. After cooling, 40 to 70 mg of the solid ointment was placed on the tip of a plastic stick and applied to the skin above the upper lip, on the philtrum, and lateral to the philtrum, up to the nasolabial folds, of test subjects and the onset and duration of cooling sensations noted.
The intensity of the subjective skin sensation was rated as 0, 1, 2 or 3 with: 0 as no change; 1 as slight coolness, cold, or tingling; 2 as clear signal of coolness, cold, or tingling; and 3 as robust cooling or cold. The intervals for recording sensations were 5 to 10 minutes, until two successive zeroes were obtained. The results (shown in FIG. 1) are averaged values of 4 to 6 separate trials in the same individual. The data are plotted using SigmaPlot® (Systat Software, Point Richmond, Calif., USA) and a smoothing function with a negative exponential was used for analysis and statistical fit of the results.
as §1, with “was” for “is”, “was also noted: such” for “is noted, for example,”
For the results in FIG. 1, the test compounds were singly applied to the skin above the upper lips at a 40 to 70 mg dose of a 1% wt/vol (10 mg/ml) ointment. Subsequently, for the results shown in Table 3, the test dose on the philtrum was reduced to a 0.5% wt/vol (5 mg/ml) ointment. The reason for choosing a lower dose was to increase the number of trials per individual and to have a reduced chance of substances accumulating in the skin.

[2] = tested on: dorsal surface of the tongue; conditions: threshold amount producing cooling on tongue of human volunteers; values from Watson US 04178459; cited from earlier work
periorbital skin = test: Ointment applied to periorbital skin: coolness, eye irritancy, alerting (Study 3); type: in vivo, human; conditions: ointment on periorbital area
Description: The ointment was also applied to the periorbital skin (upper and lower eyelids and on skin adjacent to the lateral canthus) for tests of irritancy near the eyes, and the subject is asked if irritation is present or absent. The intensity of the eye sensation is not rated.
For tests of irritancy near the eyes in Study 3 and 4, the ointment was applied to the periorbital skin (upper and lower eyelids and on skin adjacent to the lateral canthus), and the subject asked if irritation is present or absent. The intensity of the eye sensation is not rated, but just noted as being present or absent
A 1% preparation of 2-isopropyl-5-methyl-cyclohexanecarbonyl D-alanine methyl ester in Aquaphor® ointment was applied bilaterally to the periorbital area of four individuals. […] This experiment was then repeated three days later in the evening with the same individuals whose occupations required daylong activities before a computer screen.

## CCCCOC(=O)CNC(=O)[C@@H]1C[C@H](C)CC[C@H]1C(C)C [Gly nBu Ester]
eyelids/ocular surface
  Duration of cooling, Eyelids/Ocular Surface: 35 min
[1]
  Log P: 4.0
Philtrum skin
  Duration of cooling, Philtrum Skin: 38 min

## CCOC(=O)[C@H](C)NC(=O)[C@@H]1C[C@H](C)CC[C@H]1C(C)C [L-Ala Et Ester]
eyelids/ocular surface
  Duration of cooling, Eyelids/Ocular Surface: 0 min
[2]
  Threshold tongue: 0.4 µg
[1]
  Log P: 3.1
Philtrum skin
  Duration of cooling, Philtrum Skin: 34 min

## CCOC(=O)CN(C)C(=O)[C@@H]1C[C@H](C)CC[C@H]1C(C)C [Sar Et Ester]
[2]
  Threshold tongue: 0.8 µg
[1]
  Log P: 2.9

## CCCCOC(=O)[C@@H](C)NC(=O)[C@@H]1C[C@H](C)CC[C@H]1C(C)C [D-Ala nBu Ester]
eyelids/ocular surface
  Duration of cooling, Eyelids/Ocular Surface: 40 min
[1]
  Log P: 4.4
Philtrum skin
  Duration of cooling, Philtrum Skin: 80 min

## COC(=O)[C@@H](C)N(C)C(=O)[C@@H]1C[C@H](C)CC[C@H]1C(C)C [D-NMe Ala Ester]
eyelids/ocular surface
  Duration of cooling, Eyelids/Ocular Surface: 0 min
Philtrum skin
  Duration of cooling, Philtrum Skin: 0 min

## CCOC(=O)CCNC(=O)[C@@H]1C[C@H](C)CC[C@H]1C(C)C [β-Ala Et Ester]
[2]
  Threshold tongue: 1.5 µg
[1]
  Log P: 3.1

## CCOC(=O)C(C)N(C)C(=O)C1CC(C)CCC1C(C)C [N—Me-D-Ala Et Ester]
[1]
  Log P: 3.2

## CCCOC(=O)[C@@H](C)NC(=O)[C@@H]1C[C@H](C)CC[C@H]1C(C)C [D-Ala nPr Ester]
eyelids/ocular surface
  Duration of cooling, Eyelids/Ocular Surface: 65 min
[1]
  Log P: 3.8
Philtrum skin
  Duration of cooling, Philtrum Skin: 108 min

## COC(=O)[C@H](CC(C)C)NC(=O)[C@@H]1C[C@H](C)CC[C@H]1C(C)C [L-Leu Me Ester]
[1]
  Log P: 4.3

## COC(=O)[C@H](C)NC(=O)[C@@H]1C[C@H](C)CC[C@H]1C(C)C [L-Ala Me Ester]
[2]
  Threshold tongue: 0.6 µg
[1]
  Log P: 2.8

## CC(C)[C@@H]1CC[C@@H](C)C[C@H]1C(=O)N[C@H]1CCOC1=O [L-Hsl]
[1]
  Log P: 2.5

## CNC(=O)C(C)(C(C)C)C(C)C [WS-23, N-2,3-trimethyl-2-isopropylbutanamide]
Periorbital skin
  irritation of skin / eye surfaces: produced significant skin and eye irritation
Periorbital skin; conditions similar to Study 3
  skin coolness and refreshment: did not enhance skin coolness or provide satisfactory refreshment
Philtrum skin
  duration of action / onset on philtrum skin: short duration of action (less than 1 hour) on the philtrum skin or slow onset (more than 5 minutes)

## COC(=O)[C@@H]1CCCN1C(=O)[C@@H]1C[C@H](C)CC[C@H]1C(C)C [L-Pro Me Ester]
[1]
  Log P: 3.3

## COC(=O)[C@H](NC(=O)[C@@H]1C[C@H](C)CC[C@H]1C(C)C)C(C)C [D-Val Me Ester]
[1]
  Log P: 4.2

## COC(=O)[C@@H](NC(=O)[C@@H]1C[C@H](C)CC[C@H]1C(C)C)C(C)C [L-Val Me Ester]
[1]
  Log P: 4.2

## CC(C)[C@@H]1CC[C@@H](C)C[C@H]1C(=O)N[C@@H]1CCOC1=O [D-Hsl]
[1]
  Log P: 2.5
Philtrum skin; 40 to 70 mg of 1% wt/vol (10 mg/ml) ointment on skin above the upper lips
  duration of cooling (FIG. 1): 1.3 h

## COC(=O)CNC(=O)C1CC(C)CCC1C(C)C (stereo not drawn) [Gly Me Ester (WS-31), reference compound]
[2]
  Threshold tongue: 0.6 µg
[1]
  Log P: 2.4
Philtrum skin
  duration of action / onset on philtrum skin: short duration of action (less than 1 hour) on the philtrum skin or slow onset (more than 5 minutes)

## CC1CCC(C(C)C)C(C(=O)NC2CCOC2=O)C1 (mixture of isomers) [racemic Hsl]
[1]
  Log P: 2.5

## COc1ccc(NC(=O)[C@@H]2C[C@H](C)CC[C@H]2C(C)C)cc1 [WS-12, reference compound]
[2]
  Threshold tongue: 0.2 µg
[1]
  Log P: 5.3
Philtrum skin
  duration of action / onset on philtrum skin: short duration of action (less than 1 hour) on the philtrum skin or slow onset (more than 5 minutes)

## COC(=O)CCC(NC(=O)C1CC(C)CCC1C(C)C)C(=O)OC (stereo not drawn) [Glu(OMe) Me Ester]
[1]
  Log P: 2.2

## CCOC(=O)[C@H](CO)NC(=O)[C@@H]1C[C@H](C)CC[C@H]1C(C)C [L-Ser Et Ester]
[1]
  Log P: 1.8

## CC(C)[C@@H]1CC[C@@H](C)C[C@H]1C(=O)N[C@@H](CCCCNC(=O)OCc1ccccc1)C(=O)OC(C)(C)C [L-Lys(Z) t-Bu Ester]
[1]
  Log P: 5.9
